Here are results for 22 molecules from US11040954B1, “CXCR3 receptor agonists” (RECEPTOS LLC, priority 2016, dated 2021).

Molecules are shown by their SMILES. Like-named read-outs stand apart in the source and are kept apart here. Where only a bound is given, the exact number is not on record here.

In general, EC50 refers to the concentration that produces a half-maximal response. Broadly, the Cmax is the maximum level reached in the sampled fluid or tissue.

One data set concerns the target T1, CXCR3 (Homo sapiens, UniProt P49682).
T1 construct: host or cells: CHO-K1 (cAMP Hunter CHOK1 CXCR3 Gi cell line)
T1 sequence (P49682 1-368): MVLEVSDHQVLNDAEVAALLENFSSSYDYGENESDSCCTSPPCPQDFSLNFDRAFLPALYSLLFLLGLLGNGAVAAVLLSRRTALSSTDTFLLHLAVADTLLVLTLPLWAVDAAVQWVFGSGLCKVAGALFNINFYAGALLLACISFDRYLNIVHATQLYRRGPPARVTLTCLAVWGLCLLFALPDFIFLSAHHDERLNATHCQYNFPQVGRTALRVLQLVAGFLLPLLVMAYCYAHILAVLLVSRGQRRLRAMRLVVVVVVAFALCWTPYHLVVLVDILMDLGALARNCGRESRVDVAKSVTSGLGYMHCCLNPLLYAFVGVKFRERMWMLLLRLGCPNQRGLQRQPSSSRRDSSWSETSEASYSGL
Kind of data set: CXCR3 cAMP agonist assay (cAMP Hunter CHOK1 CXCR3 Gi cell line, forskolin-stimulated, HitHunter cAMP detection). In kind it is cell-based. Particulars: cAMP Hunter CHOK1 CXCR3 Gi cells, 20 μM forskolin, 30 minutes; read-out: Activity (CXCR3 cAMP agonist assay compound EC50). The essentials:
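Agonist activity was measured as suppression of forskolin (20 μM)-induced cAMP, read by luminescent enzyme-fragment complementation with a cAMP standard curve and CXCL11 defining full efficacy. Assay used 50,000 CXCR3 Gi CHOK1 cells/well in pH 7.4 HEPES-buffered HBSS with 0.1% BSA, compound 0-10 μM over 12 points, 30 min incubation.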

Data set [1] is described as follows: Mouse pharmacokinetics after oral gavage, plasma drug concentration by LC-MS/MS (C57BL/6). Format: in vivo, C57bl/6 mice. The conditions noted are these: for Cmax / AUC(0-t): mouse, plasma; for AUC(0-t): read-out: AUC0-24. The protocol:
Compounds were formulated in 5% DMSO/5% Tween20 in H2O, sonicated, vortexed, and put on stir plate overnight at a dose volume of 10 mL/kg. Balb/C (Jackson laboratories) or C57bl/6 (Taconic Biosciences) mice (8-9 weeks old) were acclimated to the colony for 3 days prior to dosing. Water and food were provided ab libitum. Compounds were administered by oral gavage. Groups of six animals received 3 to 4 bleeds per day with one terminal bleed. The time points were 30 min, 1 h, 2 h, 4 h, 6 h, 8 h, 24 h. Plasma was collected via centrifugation and analyzed for drug concentrations.
Preparation of Study Samples and Standards for Analysis by LC-MS/MS
50 μl of plasma was aliquoted into a 96 well deep-well polypropylene plate (2 mL) to which 5 μL of DMSO was added. For standards, 5 μl of test compound in DMSO at […] the standard concentration was added to 50 μl of blank matrix in a 96 well deep-well polypropylene plate. For example, for a 300 nM standard, the 10× DMSO concentration was 3 μM. Study samples that require dilution are diluted with the appropriate blank matrix. For example, for a 10× dilution, 5 μL of study sample is added to 45 μl of blank matrix. Protein was precipitated from study samples and standards with the addition of 150 μl of acetonitrile. After a clean plate map was placed firmly over the top of the 96-well plate, a bench top shaker was used for 1 min to ensure complete precipitation of protein. The precipitated protein was pelleted by centrifuging for 3,000 rpm for 10 min at 20° C. and then the clear supernatant was transferred to a clean 96-well plate and spun again under the same conditions in order to pellet any solid material that may have been transferred.
Analysis of Study Samples and Standards with LCMS with MRM Detection
An Agilent 1200 HPLC with binary pump and a Leap CTC with fast wash autosampler were used to introduce samples to the mass spectrometer.
The column used was a Phenomenex Luna C8 30×2 mm 5 μm with a security guard. Mass detection was performed by an Applied Biosystems 4000 Qtrap in MRM mode and ionization was achieved by positive electrospray with a source temperature of 500° C. The ion transitions, […] potential and collision energies were dependent on the specific analyte.
Prepared samples were usually analyzed in reverse chronological order with bracketing standard curves. Typically at least 6 standards were used for quantification with a percent accuracy of +/−15% for all standards except at the LLOQ where a percent accuracy of +/−20% was allowed. The concentration time profile was fit using a one compartment model for the applicable mode of dosing using Phoenix WinNonLin 6.4.

For `CC1(C)CCN(C(=O)CCC(=O)N2Cc3ccccc3C[C@H]2C(=O)N[C@@H](CCN)C(=O)Nc2ccc(Cl)c(Cl)c2F)C1` [Compound 15-2], the EC50 at CXCR3 is less than 50 nM. Besides, in data set [1] (C57BL/6, 60 mg/kg, female mice), the “apparent oral clearance (CL/F)” value came to 347 mL/min/kg, the concentration peaked (Cmax) at 1800 nM and the AUC(0-t) is 4.6 µM·h.
On to `Cc1cc(NC(=O)[C@H](CCN)NC(=O)[C@@H]2Cc3ccccc3CN2C(=O)CCC(=O)N2CCCCC2(C)C)c(C#N)cc1Cl` [Compound 18-1, (S)—N—((S)-4-amino-1-((4-chloro-2-cyano-5-methylphenyl)amino)-1-oxobutan-2-yl)-2-(4-(2,2-dimethylpiperidin-1-yl)-4-oxobutanoyl)-1,2,3,4-tetrahydroisoquinoline-3-carboxamide], for which, at CXCR3, the EC50 is less than 50 nM. Further, in data set [1] (C57BL/6, 60 mg/kg, female mice), the “apparent oral clearance (CL/F)” value came to 565 mL/min/kg, the peak concentration (Cmax) turned out to be 1200 nM and the AUC(0-t) came to 2.9 µM·h.
In the same order, the values of `CCc1cc(NC(=O)[C@H](CCN)NC(=O)[C@@H]2Cc3ccccc3CN2C(=O)CCC(=O)c2ccccc2)ccc1Cl` [Compound 2-55] are less than 50 nM, 176 mL/min/kg, 3000 nM and 9.9 µM·h.
In the same order, the values of `NCC[C@H](NC(=O)[C@@H]1Cc2ccccc2CN1C(=O)CCC(=O)c1ccccc1)C(=O)Nc1ccc2c(c1)CCC2` [Compound 2-47] are less than 50 nM, 66 mL/min/kg, 7600 nM and 27.5 µM·h.
In the same order, the values of `CN1CCN(C(=O)CCC(=O)N2Cc3ccccc3C[C@H]2C(=O)NC2(C(=O)Nc3ccc(Cl)c(Cl)c3F)CCNCC2)CC1` [Compound 12-138] are less than 50 nM, 851 mL/min/kg, 500 nM and 1.8 µM·h.
Take `Cc1ccc(C(F)(F)F)c(NC(=O)[C@H](CCN)NC(=O)[C@@H]2Cc3ccccc3CN2C(=O)CCC(=O)c2ccccc2)c1` [Compound 14-17]: at CXCR3, the EC50 is less than 50 nM. For the same molecule, in data set [1] (C57BL/6, 60 mg/kg, female mice), the “apparent oral clearance (CL/F)” value came to 22 mL/min/kg, the concentration peaked (Cmax) at 22000 nM and the AUC(0-t) was found to be 78 µM·h.
For `Cc1c(Cl)cc(NC(=O)[C@H](CCN)NC(=O)[C@@H]2Cc3ccccc3CN2C(=O)CCC(=O)c2ccccc2)cc1Cl` [Compound 27-3], in that order: less than 50 nM, 143 mL/min/kg, 5100 nM and 11.7 µM·h.
`COc1cc(Cl)c(Cl)cc1NC(=O)[C@H](CCN)NC(=O)[C@@H]1Cc2ccccc2CN1C(=O)CCC(=O)c1ccccc1` [Compound 2-23]: the EC50 at CXCR3 was less than 50 nM. In data set [1] (C57BL/6, 60 mg/kg, male mice), the “apparent oral clearance (CL/F)” value is 88 mL/min/kg, the peak level (Cmax) was 3900 nM and the AUC(0-t) worked out at 19 µM·h.
`CC1(C)CCCCN1C(=O)CCC(=O)N1Cc2cc(F)ccc2C[C@H]1C(=O)N[C@@H](CCN)C(=O)Nc1ccc(Cl)c(Cl)c1F` [Compound 15-62]: the 50% effective concentration (EC50) at CXCR3 was less than 50 nM. Besides, in data set [1] (C57BL/6, 60 mg/kg, female mice), the “apparent oral clearance (CL/F)” value is on record as 1100 mL/min/kg, the Cmax came out at 600 nM and the AUC(0-t) is 1.4 µM·h.
In the same order, the values of `Cc1c(Cl)ccc(NC(=O)[C@H](CCN)NC(=O)[C@@H]2Cc3ccccc3CN2C(=O)CCC(=O)N2CCCC23CCC3)c1Cl` [Compound 15-48] are less than 50 nM, 98 mL/min/kg, 6700 nM and 16.3 µM·h.
Regarding `Cc1c(NC(=O)[C@H](CCN)NC(=O)[C@@H]2Cc3ccccc3CN2C(=O)CCC(=O)c2ccccc2)ccc(Cl)c1Cl` [Compound 2-15], the EC50 at CXCR3 was less than 50 nM. In addition, in data set [1] (C57BL/6, 10 mg/kg, male mice), the “apparent oral clearance (CL/F)” value turned out to be 37 mL/min/kg, the Cmax is 970 nM and the AUC(0-t) came out at 7.5 µM·h.
In the same order, the values of `Cc1cc(NC(=O)C2(NC(=O)[C@@H]3Cc4ccccc4CN3C(=O)CCC(=O)c3ccccc3)CCN(C)CC2)ccc1Cl` [Compound 6-4] are 50 to 250 nM, 33 mL/min/kg, 810 nM and 8.3 µM·h.
Turning to `Cc1cc(NC(=O)[C@H](CCN)NC(=O)[C@@H]2Cc3ccccc3CN2C(=O)CCC(=O)N2CCCC(C)(C)C2)ccc1Cl` [Compound 12-88], the EC50 at CXCR3 is less than 50 nM. Moreover, in data set [1] (C57BL/6, 60 mg/kg, female mice), the “apparent oral clearance (CL/F)” value was found to be 280 mL/min/kg, the Cmax is 3100 nM and the AUC(0-t) was determined as 6 µM·h.
Regarding `NCC[C@H](NC(=O)[C@@H]1Cc2ccccc2CN1C(=O)CCC(=O)N1CCCC2(CCC2)C1)C(=O)Nc1ccc2c(c1)CCC2` [Compound 10-8], the EC50 on CXCR3 was less than 50 nM. Moreover, in data set [1] (C57BL/6, 60 mg/kg, female mice), the “apparent oral clearance (CL/F)” value worked out at 431 mL/min/kg, the highest concentration (Cmax) came out at 1500 nM and the AUC(0-t) is 3.9 µM·h.
`CC1(C)CCCCN1C(=O)CCC(=O)N1Cc2ccccc2C[C@H]1C(=O)N[C@@H](CCN)C(=O)Nc1ccc(Cl)c(Cl)c1F` [Compound 15-3]: the EC50 on CXCR3 is less than 50 nM. For the same molecule, in data set [1] (C57BL/6, 60 mg/kg, female mice), the “apparent oral clearance (CL/F)” value worked out at 666 mL/min/kg, the peak level (Cmax) was 600 nM and the AUC(0-t) is 2.4 µM·h.
In the same order, the values of `N#Cc1cc2c(cc1NC(=O)[C@H](CCN)NC(=O)[C@@H]1Cc3ccccc3CN1C(=O)CCC(=O)c1ccccc1)CCC2` [Compound 2-57] are less than 50 nM, 393 mL/min/kg, 1500 nM and 4.4 µM·h.
In the same order, the values of `NCC[C@H](NC(=O)[C@@H]1Cc2ccc(F)cc2CN1C(=O)CCC(=O)c1ccccc1)C(=O)Nc1ccc(Cl)c(Cl)c1F` [Compound 27-7] are less than 50 nM, 92 mL/min/kg, 4300 nM and 17.6 µM·h.
In the same order, the values of `Cc1cccc(NC(=O)[C@H](CCN)NC(=O)[C@@H]2Cc3ccccc3CN2C(=O)CCC(=O)c2ccccc2)c1C` [Compound 2-49] are less than 50 nM, 131 mL/min/kg, 7100 nM and 14.1 µM·h.
For `Cc1cc(NC(=O)[C@H](CCN)NC(=O)[C@@H]2Cc3ccccc3CN2C(=O)CCC(=O)N(C)CC(C)(C)C)ccc1Cl` [Compound 12-114], the EC50 on CXCR3 was less than 50 nM. Moreover, in data set [1] (C57BL/6, 60 mg/kg, female mice), the “apparent oral clearance (CL/F)” value is 823 mL/min/kg, the Cmax stood at 600 nM and the AUC(0-t) is 2.1 µM·h.
For `CC1(C)CCCN(C(=O)CCC(=O)N2Cc3ccccc3C[C@H]2C(=O)N[C@@H](CCN)C(=O)Nc2ccc(Cl)c(Cl)c2F)C1` [Compound 15-6], in that order: less than 50 nM, 90 mL/min/kg, 5700 nM and 17.6 µM·h.
Turning to `Cc1cc(NC(=O)[C@@H](NC(=O)[C@@H]2Cc3ccccc3CN2C(=O)CCC(=O)c2ccccc2)C2CCN(C(C)C)CC2)ccc1Cl` [Compound 8-2], the EC50 on CXCR3 is less than 50 nM. For the same molecule, in data set [1] (C57BL/6, 10 mg/kg, male mice), the “apparent oral clearance (CL/F)” value is 112 mL/min/kg, the Cmax was found to be 710 nM and the AUC(0-t) came out at 2.3 µM·h.
In the case of `Cc1cc(NC(=O)[C@H](CCN)NC(=O)[C@@H]2Cc3ccccc3CN2C(=O)CCC(=O)NCC2CCOCC2)ccc1Cl` [Compound 12-12], the EC50 at CXCR3 was more than 500 nM.
